Assays:
[1] = biological target: T1, Nuclear receptor ROR-gamma (Homo sapiens, UniProt P51449); assay: Inverse agonist activity at biotinylated APC-labeled RORgammat LBD (unknown origin) assessed as inhibition of europium-labeled SRC1 coactivator peptide recruitment incubated for 1 hr by dual FRET assay
T1 sequence (P51449 whole entry): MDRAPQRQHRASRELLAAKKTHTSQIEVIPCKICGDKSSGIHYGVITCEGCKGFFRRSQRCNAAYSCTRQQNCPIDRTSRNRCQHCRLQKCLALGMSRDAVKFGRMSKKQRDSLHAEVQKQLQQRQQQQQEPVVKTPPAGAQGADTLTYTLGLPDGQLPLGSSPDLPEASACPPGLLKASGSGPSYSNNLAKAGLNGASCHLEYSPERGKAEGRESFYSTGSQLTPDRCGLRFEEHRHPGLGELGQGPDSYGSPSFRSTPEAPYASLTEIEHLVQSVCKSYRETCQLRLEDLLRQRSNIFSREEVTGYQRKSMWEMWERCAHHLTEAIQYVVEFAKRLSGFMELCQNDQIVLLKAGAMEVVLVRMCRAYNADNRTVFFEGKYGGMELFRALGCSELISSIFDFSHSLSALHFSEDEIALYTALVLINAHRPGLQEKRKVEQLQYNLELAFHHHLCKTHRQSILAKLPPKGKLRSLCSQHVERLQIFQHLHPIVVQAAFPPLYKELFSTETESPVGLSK

[2] = biological target: T1, Nuclear receptor ROR-gamma; assay: Agonist activity at biotinylated APC-labeled RORgammat LBD (unknown origin) assessed as increase in recruitment of europium-labeled SRC1 coactivator peptide incubated for 1 hr by dual FRET assay
B16-F10 = assay: Antitumor activity against mouse B16-F10 cells xenografted in C57BL/6 mouse assessed as tumor growth inhibition at 50 mg/kg,ip administrated on day 7 for 8 days relative to control; type: functional; conditions: B16-F10, 192 h, time 8 day, read-out: TGI
cells = conditions: Mus musculus, CD4+ T cell, 96 h
Description: Induction of Th17 cells differentiation in mouse CD4+ T cell assessed as increase in CD4+ IL-17A production incubated for 4 days by flow cytometry analysis

in vivo = conditions: CD-1, mouse, po, 10 mg/kg
[3] = biological target: T2, Nuclear receptor ROR-alpha (Homo sapiens, UniProt P35398); assay: Agonist activity at human Gal4-fused RORalpha expressed in HEK293T cells assessed as luciferase activity incubated for 16 to 20 hrs by Luciferase reporter gene assay; type: cell-based
T2 sequence (P35398 whole entry): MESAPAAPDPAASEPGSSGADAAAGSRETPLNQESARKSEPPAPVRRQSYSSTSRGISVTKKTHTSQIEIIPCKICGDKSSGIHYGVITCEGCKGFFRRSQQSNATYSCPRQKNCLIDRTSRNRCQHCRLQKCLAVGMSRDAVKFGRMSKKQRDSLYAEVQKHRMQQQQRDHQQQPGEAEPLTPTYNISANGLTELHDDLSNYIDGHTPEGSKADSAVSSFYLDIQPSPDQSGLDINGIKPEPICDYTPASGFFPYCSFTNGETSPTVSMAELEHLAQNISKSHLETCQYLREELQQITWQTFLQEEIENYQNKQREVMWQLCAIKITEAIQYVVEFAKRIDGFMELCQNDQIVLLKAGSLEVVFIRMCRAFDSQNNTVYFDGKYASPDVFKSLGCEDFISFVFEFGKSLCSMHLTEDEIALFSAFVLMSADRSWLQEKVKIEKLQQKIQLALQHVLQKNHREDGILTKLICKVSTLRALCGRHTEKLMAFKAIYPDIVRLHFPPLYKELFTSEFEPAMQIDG

[4] = biological target: T3, Nuclear receptor ROR-beta (Homo sapiens) (UniProt Q92753); assay: Agonist activity at human Gal4-fused RORbeta expressed in HEK293T cells assessed as luciferase activity by measuring maximal response incubated for 16 to 20 hrs by Luciferase reporter gene assay relative to control; type: cell-based; conditions: filed as agonist, time 16-20 hrs
T3 sequence (whole entry): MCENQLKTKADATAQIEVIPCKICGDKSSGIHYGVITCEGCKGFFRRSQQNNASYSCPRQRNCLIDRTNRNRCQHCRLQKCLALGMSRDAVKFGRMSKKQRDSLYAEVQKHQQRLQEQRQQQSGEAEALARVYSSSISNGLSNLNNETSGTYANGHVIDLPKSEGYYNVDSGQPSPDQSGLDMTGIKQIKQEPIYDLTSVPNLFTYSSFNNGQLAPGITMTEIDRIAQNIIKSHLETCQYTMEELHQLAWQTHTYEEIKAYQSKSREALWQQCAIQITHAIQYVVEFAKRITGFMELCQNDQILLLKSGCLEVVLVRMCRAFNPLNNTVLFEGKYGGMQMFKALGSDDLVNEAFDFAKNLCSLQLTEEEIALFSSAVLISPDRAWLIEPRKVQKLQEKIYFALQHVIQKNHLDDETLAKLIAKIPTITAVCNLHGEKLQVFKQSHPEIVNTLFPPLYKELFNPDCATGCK

[5] = biological target: T4, Nuclear receptor ROR-alpha (Homo sapiens) (UniProt P35398); assay: Agonist activity at human Gal4-fused RORalpha expressed in HEK293T cells assessed as luciferase activity by measuring maximal response incubated for 16 to 20 hrs by Luciferase reporter gene assay relative to control; type: cell-based; conditions: filed as agonist, time 16-20 hrs
T4 sequence (whole entry): T2 sequence (P35398 whole entry)

[6] = biological target: T5, Nuclear receptor ROR-beta (Homo sapiens, UniProt Q92753); assay: Agonist activity at human Gal4-fused RORbeta expressed in HEK293T cells assessed as luciferase activity incubated for 16 to 20 hrs by Luciferase reporter gene assay; type: cell-based
T5 sequence (Q92753 whole entry): T3 sequence (whole entry)

[7] = Metabolic Stability in mouse liver microsome assessed as half life at […] measured upto 60 mins by HPLC-MS/MS analysis; type: ADME; conditions: liver microsomes
[8] = Metabolic Stability in human liver microsome assessed as microsomal intrinsic clearance at […] measured upto 60 mins by HPLC-MS/MS analysis; type: ADME; conditions: liver microsomes, read-out: CLH
[9] = Metabolic Stability in mouse liver microsome assessed as microsomal intrinsic clearance at […] measured upto 60 mins by HPLC-MS/MS analysis; type: ADME; conditions: liver microsomes, read-out: CLH
[10] = Metabolic Stability in human liver microsome assessed as half life at […] measured upto 60 mins by HPLC-MS/MS analysis; type: ADME; conditions: liver microsomes

Row | SMILES | EC50 [2] [nM] | half-life [7] [min] | microsomal CLint [8] [µL/min/mg] | microsomal CLint [9] [µL/min/mg] | half-life [10] [min] | further results
1 | CCS(=O)(=O)c1ccc(CC(=O)Nc2cc(Cl)c(-c3ccccc3)c(Cl)c2)cc1 |  |  |  |  |  | XC50 [1]: 9.2 nM
2 | CCS(=O)(=O)c1ccc(CC(=O)Nc2cc(Cl)c(-c3ccc(CC(C)C)c(F)c3)c(Cl)c2)cc1 | 15.2 |  |  |  |  | 
3 | CCS(=O)(=O)c1ccc(CC(=O)Nc2cc(Cl)c(-c3ccc(CC(C)C)cc3)c(Cl)c2)cc1 | 12.7 |  |  |  |  | 
4 | CC(C)(C[C@H]1CN(S(=O)(=O)c2cccc(C(F)(F)F)c2)c2cc(-c3cc(F)cc(OC(F)F)c3)ccc2O1)C(=O)O [CINTIRORGON] |  |  |  |  |  | inhibition in vivo at 50 mg/kg (B16-F10): 45.3%; EC50 (cells): 9.8 nM; AUC(0-inf) at 24 h (in vivo): 3240 ng·h/mL; EC50 [3]: 2920 nM; %max [4]: 100%; %max [5]: 67.3%; EC50 [6]: 5430 nM
5 | CCC(C)Cc1ccc(-c2c(Cl)cc(NC(=O)Cc3ccc(S(=O)(=O)CC)cc3)cc2Cl)cc1C#N (stereo unspecified) |  | 78.5 | 81.9 | 17.6 | 16.9 | 
6 | CCS(=O)(=O)c1ccc(CNC(=O)c2cc(Cl)c(-c3ccc(CC(C)C)c(C#N)c3)c(Cl)c2)cc1 |  | 28 | > 554 | 49.5 | < 2.5 | 
7 | CCS(=O)(=O)c1ccc(CC(=O)Nc2cc(Cl)c(-c3ccc(CC4CCCC4)c(C#N)c3)c(Cl)c2)cc1 | 14.3 |  |  |  |  | 
8 | CCS(=O)(=O)c1ccc(CC(=O)Nc2cc(Cl)c(-c3ccc(CC(C)C)c(C#N)c3)c(Cl)c2)cc1 | 12.2 | 37.7 | 533 | 36.7 | 2.6 | EC50 (cells): 13 nM
9 | CCS(=O)(=O)c1ccc(CNC(=O)Nc2cc(Cl)c(-c3ccc(CC(C)C)c(C#N)c3)c(Cl)c2)cc1 |  | 50.6 | 354 | 27.4 | 3.9 | 
10 | CCS(=O)(=O)c1ccc(CC(=O)Nc2cc(Cl)c(-c3ccc(CC(C)C)c(C#N)c3)c(Cl)c2)nc1 |  | 37.4 | 150 | 37 | 9.3 | 
11 | CCS(=O)(=O)c1ccc(CC(=O)Nc2cc(Cl)c(-c3ccc(C=C4CCC4)c(C#N)c3)c(Cl)c2)cc1 | 20.7 |  |  |  |  | 
12 | CCS(=O)(=O)c1ccc(CC(=O)Nc2cc(Cl)c(-c3ccc(CN(C)C)c(C#N)c3)c(Cl)c2)cc1 |  | 12.9 |  | 108 |  | 

Source: ChEMBL document CHEMBL5375953, “Discovery of Biaryl Amide Derivatives as Potent, Selective, and Orally Bioavailable RORγt Agonists for Cancer Immunotherapy” (J Med Chem, 2023)
